{
  "source": "patent US11007269B2",
  "about": "“P53 degradation inducing molecule and pharmaceutical composition” (Tokyo University of Science Foundation, priority 2016, dated 2021)",
  "tested_on": "senescence-associated acidic β-galactosidase (SA-β-gal) inducing TIG3 cells",
  "assay": "FACS analysis of SA-β-gal in doxorubicin senescence-induced TIG3 cells (anti-aging action)",
  "format": "cell-based, human",
  "conditions": "50 μM added after doxorubicin (150 nM), 48 hours",
  "method": "In Example 5, an anti-aging action in a senescence-associated acidic β-galactosidase (SA-β-gal) inducing TIG3 cells (human embryonic fibroblast) in which TIBC-CANDDY_MLN had been added was evaluated by FACS analysis.\nTIG3 cells as normal cells were seeded in a 24-well plate at a cell density of 8×10^4 cells/well, and then cultured under conditions of 37° C. and 5 vol % CO2 for 16 hours.\nAfter 16 hours from cell seeding, doxorubicin was added to each well at 150 nM/well to induce cellular senescence. As a medium, a serum-free medium (37° C.) in which 1 mass % L-glutamine solution (Sigma-Aldrich) was added to D-MEM (high D-glucose, phenol red, sodium pyruvate (Wako Pure Chemical Industries, Ltd.)) was used. It is noted that the L-glutamine solution was added immediately before use. After the addition of doxorubicin, culture was performed under conditions of 37° C. and 5 vol % CO2 for 24 hours.\nAfter 24 hours from induction of senescence, TIBC-CANDDY_MLN was added to TIG3 cells as follows. As a medium, a serum-free medium (37° C.) in which 1 mass % L-glutamine solution (Sigma-Aldrich) was added to D-MEM (high D-glucose, phenol red, sodium pyruvate (Wako Pure Chemical Industries, Ltd.)) was used. It is noted that the L-glutamine solution was added immediately before use. A DMSO solution containing TIBC-CANDDY_MLN was mixed with the medium so that the concentration of DMSO was 1 vol %, and added to each well at 500 μL/well, and cultured under conditions of 37° C. and 5 vol % CO2 for 48 hours. As a control, DMSO was used.\nFor quantification of SA-β-gal as a senescence marker, a commercially available kit (Cellular Senescence Detection Kit-SPiDER-βGal (DOJINDO LABORATORIES)) was used. […]\nA BD FACSCanto™ II (BD Biosciences) was used for flow cytometry to detect SA-β-gal labeled with FITC. […] A histogram of the FITC strength was created by an analysis software FlowJo™ (TOMY Digital Biology Co., Ltd.), and the senescence suppressing action by TIBC-CANDDY_MLN was evaluated from a shift in the histogram.",
  "data": [
    {"smiles": "CC(C)C[C@H](NC(=O)CNC(=O)c1cc(Cl)ccc1Cl)C(=O)NCCCCCCC(=O)Nc1ccc(C(=O)/C=C/c2ccc(I)cc2)cc1", "note": "[TIBC-CANDDY_MLN]", "values": [
      {"measurement": "cellular senescence suppressing action", "result": "about 80%"},
      {"measurement": "shift to SA-β-gal (senescence marker) positive (FACS histogram)", "result": "hardly observed"}
    ]}
  ]
}
